Measurements: patent US20200352886A1 (priority 2009, published 2020)

What was measured:
Sprague-Dawley rats = details: rat, in vivo
Gottingen Minipigs = details: minipig, in vivo
Procedure: The broad aim of the study was to evaluate the potential dermal toxicity of DMSO when administered topically to four groups of Gottingen Minipigs® for 52 weeks at concentrations of 0, 9%, 45.5% and 90% (w/w) and to evaluate reversibility, progression, or delayed appearance of any observed changes following a 1-month postdose observation period. Two additional groups of Gottingen Minipigs® were dosed topically for 39 weeks at 0% and 90% followed by a 4-month recovery post dose observation period.
Four groups consisting of six animals/sex/group received DMSO at respective dose levels of 0, 9, 45.5, or 90% (w/w) by dermal application three times a day for 364 consecutive days. Following 52 weeks of administration, two animals/sex at 0, 9, 45.5, and 90% dose levels were maintained for a 4-week recovery period. Two additional groups consisting of six animals/sex/group received the control or 90% (w/w) DMSO by dermal application three times a day for 273 consecutive days. Following 39 weeks of administration, two animals/sex at 0 and 90% dose levels were maintained for a 4 month recovery period. […]
Clinical observations were conducted weekly. At the end of the each treatment and recovery period, necropsy examinations were performed, organ weights were recorded, and selected tissues were microscopically examined. […]

[1] = cited from earlier work
[2] = tested on: subjects with primary osteoarthritis of the knee; test: 12-week randomized controlled trial: safety (adverse events, laboratory parameters, ocular examination); format: in vivo, human
Procedure: Study Design: Eligible subjects were stratified by the investigator at baseline into stratum 1 (no pain and normal radiological examination in the non-study knee) or stratum 2 (pain and/or abnormal radiological examination in the non-study knee), and then randomized into the trial by receiving the next numbered study kit at that clinic for that stratum. […] Subjects applied 40 drops of solution (approximately 1.2 mL) around the entire circumference of the study knee, without massage, 4 times daily, and took one study tablet daily for up to 12 weeks.
Each subject completed a full efficacy assessment questionnaire after randomization at baseline and at 4, 8 and 12 weeks, or at drop out. […] The POHA asked the question, “Considering all the ways your osteoarthritic (study) knee and its treatment affect you, including both positive and negative effects, how would you rate your overall state of health in the past 48 hours?” Secondary efficacy variables were WOMAC stiffness and patient global assessment (“PGA”) of knee osteoarthritis. The PGA asked the question, “How has the osteoarthritis in your study joint been over the last 48 hours?” The POHA and PGA were scored on a 5-point Likert scale. There was no assessment of the non-treated knee. […] Adverse events were categorized according to Coding Symbols for Thesaurus of Adverse Reaction Terms (“COSTART”). Blood and urine samples were obtained for routine laboratory analysis at baseline, 4 and 12 weeks. Ocular examination (visual acuity test, slit lamp examination and lens assessment) was conducted at the baseline and final visit.
For a missing final score, last observation was carried forward (“LOCF”). Safety analyses were performed on all subjects who received even one dose of either study medication. There was no imputation of missing safety data.

[3] = tested on: symptomatic primary osteoarthritis of the knee; test: 12-week double-blind, double-dummy randomized controlled trial: efficacy (WOMAC, POHA, PGA); format: in vivo, human; details: 12 weeks
Procedure: This randomized, double-blind, double-dummy, placebo-, vehicle- and active-controlled study was conducted at 40 outpatient centers in Canada and 21 centers in the United States following approval by the appropriate institutional review boards. Eligible subjects, after written informed consent, included men and non-pregnant women aged 40-85 with primary OA of the knee based on (i) standard radiological criteria for OA (Altman, R D, et al., Atlas of individual radiographic features in osteoarthritis. […] J Rheumatol. 1988 December; 15(12):1833-40). All knee films were reviewed by a single radiologist and each compartment was scored (none=1, mild=2, moderate=3, severe=4). Only one knee was treated; where both knees met all entry criteria, the more painful knee (or dominant knee if they scored the same) was selected. Standard exclusion criteria were employed, as described in Roth S H, Shainhouse J Z. Efficacy and safety of a topical diclofenac solution ([…]®) in the treatment of primary osteoarthritis of the knee: a randomized, double-blind, vehicle-controlled clinical trial. Arch Intern Med. 2004; 164:2017-23. Study Design: […] Each study kit contained topical solution and oral tablets for one of the five treatment regimens: […] Topical Diclofenac Solution plus oral diclofenac tablets. […] Concomitant analgesic and anti-inflammatory medications, including over the counter NSAIDs and other analgesics, were prohibited. Continuation of stable treatment with glucosamine, chondroitin, anti-depressants or a proton pump inhibitor (previous 90 days), or low-dose (<325 mg/day) acetylsalicylic acid (previous 30 days) was permitted. Acetaminophen was provided, and permitted (up to four 325-mg caplets per day) except during the 3 days before each efficacy assessment. Other topical products on the knee, including skin emollients, were prohibited. A patient with a gastrointestinal adverse event was allowed to start a proton pump inhibitor. Compliance with the treatment regimen was assessed by weighing the solution bottles and counting study tablets at each clinic visit. […] of randomized placebo controlled clinical trials. J Rheumatol. 2006; 33:1841-4), and patient overall health assessment (“POHA”). The POHA asked the question, “Considering all the ways your osteoarthritic (study) knee and its treatment affect you, including both positive and negative effects, how would you rate your overall state of health in the past 48 hours?” Secondary efficacy variables were WOMAC stiffness and patient global assessment (“PGA”) of knee osteoarthritis. The PGA asked the question, “How has the osteoarthritis in your study joint been over the last 48 hours?” The POHA and PGA were scored on a 5-point Likert scale. There was no assessment of the non-treated knee. […] Adverse events were categorized according to Coding Symbols for Thesaurus of Adverse Reaction Terms (“[…]”). Blood and urine samples were obtained for routine laboratory analysis at baseline, 4 and 12 weeks. Ocular examination (visual acuity test, slit lamp examination and lens assessment) was conducted at the baseline and final visit. All planned analyses were specified a priori. […] Statistical tests were two-sided at the 5% level of significance. All efficacy analyses were by analysis of covariance of the change in score from baseline to landmark final assessment, with baseline score as the covariate. Subjects in both randomization strata were combined for all analyses. Secondary comparisons included topical diclofenac vs. placebo for the secondary variables, and topical diclofenac vs. DMSO vehicle and DMSO vehicle vs. placebo for all variables. A post hoc efficacy analysis compared topical diclofenac vs. oral diclofenac and topical diclofenac+oral diclofenac vs. oral diclofenac. For a missing final score, last observation was carried forward (“LOCF”). Safety analyses were performed on all subjects who received even one dose of either study medication. There was no imputation of missing safety data. […]

[4] = 50 mg of oral diclofenac TID, label of Voltaren Gel
[5] = clinical trials, combination compared to oral diclofenac alone
[6] = normal at baseline to above upper limit of normal
[7] = mean (SD), maximum score 4, mITT

Compound: C[S+](C)[O-] [DMSO, Dimethyl sulfoxide]
- ophthalmoscopic abnormalities (Sprague-Dawley rats): No test article-related ophthalmoscopic abnormalities
- ophthalmoscopic abnormalities (Gottingen Minipigs): no test article-related ophthalmoscopic abnormalities of any kind
- risk for development of lens opacities or refractive index changes (Gottingen Minipigs): no increased risk for development of lens opacities or refractive index changes

Compound: O=C(O)Cc1ccccc1Nc1c(Cl)cccc1Cl [ODiclo, diclofenac]
- mean AUC0-24 [1, 4]: 3.89 µg·h/mL
- mean Cmax [1, 4]: 2.27 µg/mL
- predicted level of diclofenac reported with oral diclofenac ([1]; oral): 1500 ng/mL
- Abdominal pain ([2]; 12 weeks): 11 (7.3) number (%) of subjects
- Abnormal taste sensation or odor ([2]; 12 weeks): 0 (0.0) number (%) of subjects
- Any adverse event ([2]; 12 weeks): 94 (62.3) number (%) of subjects
- Any digestive system event ([2]; 12 weeks): 36 (23.8) number (%) of subjects
- Any skin/appendages event ([2]; 12 weeks): 11 (7.3) number (%) of subjects
- Contact dermatitis (application site) ([2]; 12 weeks): 1 (0.7) number (%) of subjects
- Contact dermatitis with vesicles (application site) ([2]; 12 weeks): 1 (0.7) number (%) of subjects
- Diarrhea ([2]; 12 weeks): 7 (4.6) number (%) of subjects
- Dry skin (application site) ([2]; 12 weeks): 4 (2.6) number (%) of subjects
- Dyspepsia ([2]; 12 weeks): 6 (4.0) number (%) of subjects
- Nausea ([2]; 12 weeks): 3 (2.0) number (%) of subjects
- Pruritis (application site) ([2]; 12 weeks): 0 (0.0) number (%) of subjects
- Rash ([2]; 12 weeks): 0 (0.0) number (%) of subjects
- Rectal hemorrhage ([2]; 12 weeks): 0 (0.0) number (%) of subjects
- incidence of hypertension ([2]; 12 weeks): 1.3%
- increase in any liver enzyme to three times the upper limit of normal ([2]; 12 weeks): 2 subjects
- Abnormal vision ([2]; 12 weeks, other system event): 4 (2.6) number (%) of subjects
- Accidental injury ([2]; 12 weeks, other system event): 4 (2.6) number (%) of subjects
- Arthralgia ([2]; 12 weeks, other system event): 12 (7.9) number (%) of subjects
- Back pain ([2]; 12 weeks, other system event): 11 (7.3) number (%) of subjects
- Conjunctivitis ([2]; 12 weeks, other system event): 3 (2.0) number (%) of subjects
- Headache ([2]; 12 weeks, other system event): 26 (17.2) number (%) of subjects
- Pain ([2]; 12 weeks, other system event): 8 (5.3) number (%) of subjects
- Respiratory disorder ([2]; 12 weeks, other system event): 8 (5.3) number (%) of subjects
- ALT, mean change ([2]; baseline to final, mean (SD)): 7.2 (25.3) U/L
- AST, mean change ([2]; baseline to final, mean (SD)): 2.5 (10.9) U/L
- Creatinine, mean change ([2]; baseline to final, mean (SD)): 3.1 (11.0) μmol/L
- Hemoglobin, mean change ([2]; baseline to final, mean (SD)): −3.8 (7.1) g/L
- abnormal creatinine [2, 5]: 7%
- abnormal hemoglobin [2, 5]: 9%
- abnormal urea [2, 5]: 12%
- rate of rectal hemorrhage ([2]; clinical trials, combination of topical and oral diclofenac compared to oral diclofenac alone): less than 1%
- ALT, normal to abnormal [2, 6]: 26 (18.8) N (%)
- Creatinine, normal to abnormal [2, 6]: 10 (7.2) N (%)
- Hemoglobin, normal to abnormal ([2]; normal at baseline to below lower limit of normal): 8 (5.8) N (%)
- serious adverse events ([2]; number of events per arm, 12 weeks): 1
- PGA (patient global assessment of the study knee), change in score [3, 7]: −1.42 (1.29)
- POHA (patient overall health assessment), change in score [3, 7]: −0.88 (1.31)
- WOMAC Stiffness, change in score ([3]; mean (SD), maximum score 8, mITT): −2.07 (2.02)
- WOMAC Pain, change in score (final score minus baseline score) ([3]; mean (SD), maximum score 20, mITT): −6.4 (4.1)
- WOMAC Physical Function, change in score ([3]; mean (SD), maximum score 68, mITT): −17.5 (14.3)
- improvement in variable score ([3]; oral diclofenac group): 40-48%
